Like-named read-outs stand apart in the source and are kept apart here.
Experiments:
LCK = biological target: T1, LCK (Homo sapiens, UniProt P06239); assay: KINOMEscan; assay type: binding; conditions: 1.0 µM
T1 construct: purchased Eurofins/DiscoverX KINOMEscan scanMAX

Fgr T338M = biological target: T2, Fgr T338M (Homo sapiens, UniProt P09769, T334M); assay: Z'-LYTE in vitro kinase assay; assay type: biochemical
T2 construct: Recombinant near-full-length kinases, consisting of the SH2, SH3 and kinase domains plus the negative regulatory tail; made in house; host or cells: E. coli BL21Star (DE3), co-expressed with Csk and PTP1B
Procedure: Assays were performed in quadruplicate in 384-well low volume, non-binding, black polystyrene microplates (Corning) according to the manufacturer’s instructions. Briefly, this assay measures phosphorylation of the Tyr2 peptide substrate which is tagged with coumarin and fluorescein on its N- and C-termini, respectively, to form a FRET pair. After the kinase reaction, a development step involves site-specific proteolytic cleavage of the unphosphorylated but not the phosphorylated peptide. […] Kinase reactions were run in 50 mM HEPES, pH 7.5, 10 mM MgCl2, 1 mM EGTA, and 0.01% BRIJ-35 (buffer supplied by the manufacturer). […] Following incubation for 1 h at ambient temperature, reactions were quenched by addition of the development protease, and coumarin and fluorescein fluorescence were measured 1 h later on a Molecular Devices SpectraMax M5 plate reader. […] For experiments with inhibitors, compounds were preincubated with kinase for 30 min prior to initiation of the reaction by the addition of ATP.

[1] = tested on: TF-1/FLT3-ITD + Fgr-T338M cells; assay: CellTiter-Blue cell viability; assay type: cell-based, human
Procedure: (§1) Full-length cDNA clones of each kinase were subcloned into the retroviral expression vectors pMSCV-neo or pMSCV-puro (Clontech). High-titer retroviral stocks were produced in 293T cells co-transfected with each pMSCV construct and an amphotropic packaging vector. TF-1 cells (10^6) were resuspended in 5.0 mL of undiluted viral supernatant and centrifuged at 1,000 × g for 4 h at 18 °C in the presence of 4 μg/mL Polybrene (Sigma-Aldrich) to enhance viral transduction. Forty-eight hours after infection, the cells began a two-week selection period with 400 μg/ml G-418 (neo vectors) or 3 μg/mL puromycin (puro vectors). Following selection, cells were maintained with 200 μg/ml G418 or 1 μg/mL puromycin. For double transduction experiments, TF-1 cells were first infected with the pMSCV-neo-Flt3-ITD virus, selected with G418, followed by the pMSCV-puro virus carrying Hck or Fgr and puromycin selection. All TF-1 cell populations that expressed Flt3-ITD (including inhibitor-resistant mutants) proliferated in a GM-CSF-independent manner, and were therefore subcultured in the absence of GM-CSF.
(§2) Cells were seeded at 10^5 per mL in the presence or absence of inhibitors with DMSO as carrier solvent (0.1% final). Cell viability was assessed using the CellTiter-Blue reagent according to the manufacturer’s instructions (Promega). Fluorescence intensity, which correlates directly with viable cell number, was measured using a SpectraMax M5 microplate reader. Each experiment included three technical replicates per condition, and each experiment was repeated at least three times.

[2] = tested on: TF-1/Flt3-ITD N676S + Hck cells; assay: CellTiter-Blue cell viability; assay type: cell-based, human; conditions: S9 Fig, 48 h
Procedure: as §1, §2

[3] = tested on: TF-1/Flt3-ITD N676S cells; assay: CellTiter-Blue cell viability; assay type: cell-based, human
Procedure: as §1, §2

[4] = tested on: TF-1/Flt3-ITD + Hck cells; assay: CellTiter-Blue cell viability; assay type: cell-based, human; conditions: Fig 3; Flt3-ITD: WT; SFK: Hck; 72 hours; read-out: IC50, nM (growth inhibition)
Procedure: as §1, §2

[5] = tested on: TF-1/Flt3-ITD D835Y + Hck cells; assay: CellTiter-Blue cell viability; assay type: cell-based, human; conditions: Fig 3, SFK: Hck, 72 hours, read-out: IC50, nM (growth inhibition)
Procedure: as §1, §2

[6] = tested on: TF-1/FLT3-ITD + Fgr-T338L cells; assay: CellTiter-Blue cell viability; assay type: cell-based, human
Procedure: as §1, §2

[7] = tested on: TF-1/Flt3-ITD N676S + Fgr cells; assay: CellTiter-Blue cell viability; assay type: cell-based, human; conditions: S9 Fig, 48 h
Procedure: as §1, §2

TF-1/Flt3-ITD cells = assay: CellTiter-Blue cell viability; assay type: cell-based, human; conditions: 72 hours
Procedure: as §1, §2

[8] = tested on: TF-1/Flt3-ITD + Fgr cells; assay: CellTiter-Blue cell viability; assay type: cell-based, human; conditions: Fig 3; Flt3-ITD: WT; SFK: Fgr; 72 hours; read-out: IC50, nM (growth inhibition)
Procedure: as §1, §2

Lyn T338F = biological target: T3, Lyn T338F (Homo sapiens, UniProt P07948, T319F); assay: Z'-LYTE in vitro kinase assay; assay type: biochemical; conditions: read-out: A-419259 IC50, Fig 5B, ATP at Km, mean ± SE, three independent determinations
T3 construct: Recombinant near-full-length kinases, consisting of the SH2, SH3 and kinase domains plus the negative regulatory tail; made in house; host or cells: E. coli BL21Star (DE3), co-expressed with Csk and PTP1B

LYN = biological target: T4, LYN (Homo sapiens, UniProt P07948); assay: KINOMEscan; assay type: binding; conditions: 1.0 µM
T4 construct: purchased Eurofins/DiscoverX KINOMEscan scanMAX

468 kinases = assay: KINOMEscan scanMAX profile, overall selectivity; assay type: binding, human; conditions: 1 μM; 468 kinase targets
MRCKB = biological target: T5, MRCKB (Homo sapiens, UniProt Q9Y5S2); assay: KINOMEscan; assay type: binding; conditions: 1.0 µM
T5 construct: purchased Eurofins/DiscoverX KINOMEscan scanMAX
Procedure: (§3) Kinase retention to the immobilized ligand is then measured using quantitative real-time PCR for each kinase-specific DNA barcode.

DMPK2 = biological target: T6, DMPK2 (Homo sapiens, UniProt Q6DT37); assay: KINOMEscan; assay type: binding; conditions: 1.0 µM
T6 construct: purchased Eurofins/DiscoverX KINOMEscan scanMAX
Procedure: as §3

PRKCH = biological target: T7, PRKCH (Homo sapiens, UniProt P24723); assay: KINOMEscan; assay type: binding; conditions: 1.0 µM
T7 construct: purchased Eurofins/DiscoverX KINOMEscan scanMAX
Procedure: as §3

[9] = tested on: MV4-11 R2 (A-419259-resistant population); assay: CellTiter-Blue cell viability; assay type: cell-based, human
Procedure: as §2, with “Cell” for “Cells were seeded at 10^5 per mL in the presence or absence of inhibitors with DMSO as carrier solvent (0.1% final). Cell”, “times. […] Viability of each cell population was measured three times per week using the CellTiter-Blue assay.” for “times.”

[10] = tested on: MOLM14 R2 (A-419259-resistant population); assay: CellTiter-Blue cell viability; assay type: cell-based, human
Procedure: as §2, with “Cell” for “Cells were seeded at 10^5 per mL in the presence or absence of inhibitors with DMSO as carrier solvent (0.1% final). Cell”, “times. […] Viability of each cell population was measured three times per week using the CellTiter-Blue assay.” for “times.”

[11] = tested on: MOLM14 R3 (A-419259-resistant population); assay: CellTiter-Blue cell viability; assay type: cell-based, human
Procedure: as §2, with “Cell” for “Cells were seeded at 10^5 per mL in the presence or absence of inhibitors with DMSO as carrier solvent (0.1% final). Cell”, “times. […] Viability of each cell population was measured three times per week using the CellTiter-Blue assay.” for “times.”

[12] = tested on: MV4-11 R3 (A-419259-resistant population); assay: CellTiter-Blue cell viability; assay type: cell-based, human
Procedure: as §2, with “Cell” for “Cells were seeded at 10^5 per mL in the presence or absence of inhibitors with DMSO as carrier solvent (0.1% final). Cell”, “times. […] Viability of each cell population was measured three times per week using the CellTiter-Blue assay.” for “times.”

[13] = tested on: MOLM14 R1 (A-419259-resistant population); assay: CellTiter-Blue cell viability; assay type: cell-based, human
Procedure: as §2, with “Cell” for “Cells were seeded at 10^5 per mL in the presence or absence of inhibitors with DMSO as carrier solvent (0.1% final). Cell”, “times. […] Viability of each cell population was measured three times per week using the CellTiter-Blue assay.” for “times.”

[14] = tested on: MOLM13 R3 (A-419259-resistant population); assay: CellTiter-Blue cell viability; assay type: cell-based, human
Procedure: as §2, with “Cell” for “Cells were seeded at 10^5 per mL in the presence or absence of inhibitors with DMSO as carrier solvent (0.1% final). Cell”, “times. […] Viability of each cell population was measured three times per week using the CellTiter-Blue assay.” for “times.”

[15] = read-out: A-419259 Sensitivity (IC50, nM) Initial, mean ± SE (n = 3)
[16] = read-out: A-419259 Sensitivity (IC50, nM) Post-holiday, after 4 weeks passage in the absence of inhibitor, mean ± SE (n = 3)

T4 sequence (P07948 whole entry): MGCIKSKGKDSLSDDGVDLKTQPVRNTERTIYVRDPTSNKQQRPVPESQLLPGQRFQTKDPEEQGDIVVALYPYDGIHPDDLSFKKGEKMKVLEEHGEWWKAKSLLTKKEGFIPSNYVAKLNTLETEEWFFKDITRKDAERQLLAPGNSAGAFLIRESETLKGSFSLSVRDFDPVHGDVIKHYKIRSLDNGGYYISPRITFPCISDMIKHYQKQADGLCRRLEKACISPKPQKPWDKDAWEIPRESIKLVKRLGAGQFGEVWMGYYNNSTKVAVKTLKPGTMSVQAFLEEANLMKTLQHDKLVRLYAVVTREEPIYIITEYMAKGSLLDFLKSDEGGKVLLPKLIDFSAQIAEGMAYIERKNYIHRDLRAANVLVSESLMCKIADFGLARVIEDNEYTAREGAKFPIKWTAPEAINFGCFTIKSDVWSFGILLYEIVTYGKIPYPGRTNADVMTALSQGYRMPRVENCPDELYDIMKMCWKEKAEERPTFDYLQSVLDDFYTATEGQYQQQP
T7 sequence (P24723 whole entry): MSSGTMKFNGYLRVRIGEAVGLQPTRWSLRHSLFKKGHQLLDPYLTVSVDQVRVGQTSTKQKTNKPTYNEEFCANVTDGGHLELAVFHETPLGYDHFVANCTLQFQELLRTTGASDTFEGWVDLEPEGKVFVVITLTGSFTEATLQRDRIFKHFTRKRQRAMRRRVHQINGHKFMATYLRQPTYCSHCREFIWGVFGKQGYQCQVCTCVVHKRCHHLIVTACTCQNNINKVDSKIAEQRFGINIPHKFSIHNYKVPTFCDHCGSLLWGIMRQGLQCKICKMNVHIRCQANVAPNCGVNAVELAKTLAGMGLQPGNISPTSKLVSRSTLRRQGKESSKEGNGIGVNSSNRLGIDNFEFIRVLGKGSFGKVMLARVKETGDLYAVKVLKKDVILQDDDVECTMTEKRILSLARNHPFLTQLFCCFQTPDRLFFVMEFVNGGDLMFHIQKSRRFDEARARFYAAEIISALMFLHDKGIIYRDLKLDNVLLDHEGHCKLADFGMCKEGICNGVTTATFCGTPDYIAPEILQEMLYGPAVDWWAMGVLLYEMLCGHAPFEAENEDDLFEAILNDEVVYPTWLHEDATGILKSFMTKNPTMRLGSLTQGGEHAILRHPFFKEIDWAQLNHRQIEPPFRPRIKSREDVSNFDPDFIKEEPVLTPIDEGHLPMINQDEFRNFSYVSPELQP
T5 sequence (Q9Y5S2 whole entry): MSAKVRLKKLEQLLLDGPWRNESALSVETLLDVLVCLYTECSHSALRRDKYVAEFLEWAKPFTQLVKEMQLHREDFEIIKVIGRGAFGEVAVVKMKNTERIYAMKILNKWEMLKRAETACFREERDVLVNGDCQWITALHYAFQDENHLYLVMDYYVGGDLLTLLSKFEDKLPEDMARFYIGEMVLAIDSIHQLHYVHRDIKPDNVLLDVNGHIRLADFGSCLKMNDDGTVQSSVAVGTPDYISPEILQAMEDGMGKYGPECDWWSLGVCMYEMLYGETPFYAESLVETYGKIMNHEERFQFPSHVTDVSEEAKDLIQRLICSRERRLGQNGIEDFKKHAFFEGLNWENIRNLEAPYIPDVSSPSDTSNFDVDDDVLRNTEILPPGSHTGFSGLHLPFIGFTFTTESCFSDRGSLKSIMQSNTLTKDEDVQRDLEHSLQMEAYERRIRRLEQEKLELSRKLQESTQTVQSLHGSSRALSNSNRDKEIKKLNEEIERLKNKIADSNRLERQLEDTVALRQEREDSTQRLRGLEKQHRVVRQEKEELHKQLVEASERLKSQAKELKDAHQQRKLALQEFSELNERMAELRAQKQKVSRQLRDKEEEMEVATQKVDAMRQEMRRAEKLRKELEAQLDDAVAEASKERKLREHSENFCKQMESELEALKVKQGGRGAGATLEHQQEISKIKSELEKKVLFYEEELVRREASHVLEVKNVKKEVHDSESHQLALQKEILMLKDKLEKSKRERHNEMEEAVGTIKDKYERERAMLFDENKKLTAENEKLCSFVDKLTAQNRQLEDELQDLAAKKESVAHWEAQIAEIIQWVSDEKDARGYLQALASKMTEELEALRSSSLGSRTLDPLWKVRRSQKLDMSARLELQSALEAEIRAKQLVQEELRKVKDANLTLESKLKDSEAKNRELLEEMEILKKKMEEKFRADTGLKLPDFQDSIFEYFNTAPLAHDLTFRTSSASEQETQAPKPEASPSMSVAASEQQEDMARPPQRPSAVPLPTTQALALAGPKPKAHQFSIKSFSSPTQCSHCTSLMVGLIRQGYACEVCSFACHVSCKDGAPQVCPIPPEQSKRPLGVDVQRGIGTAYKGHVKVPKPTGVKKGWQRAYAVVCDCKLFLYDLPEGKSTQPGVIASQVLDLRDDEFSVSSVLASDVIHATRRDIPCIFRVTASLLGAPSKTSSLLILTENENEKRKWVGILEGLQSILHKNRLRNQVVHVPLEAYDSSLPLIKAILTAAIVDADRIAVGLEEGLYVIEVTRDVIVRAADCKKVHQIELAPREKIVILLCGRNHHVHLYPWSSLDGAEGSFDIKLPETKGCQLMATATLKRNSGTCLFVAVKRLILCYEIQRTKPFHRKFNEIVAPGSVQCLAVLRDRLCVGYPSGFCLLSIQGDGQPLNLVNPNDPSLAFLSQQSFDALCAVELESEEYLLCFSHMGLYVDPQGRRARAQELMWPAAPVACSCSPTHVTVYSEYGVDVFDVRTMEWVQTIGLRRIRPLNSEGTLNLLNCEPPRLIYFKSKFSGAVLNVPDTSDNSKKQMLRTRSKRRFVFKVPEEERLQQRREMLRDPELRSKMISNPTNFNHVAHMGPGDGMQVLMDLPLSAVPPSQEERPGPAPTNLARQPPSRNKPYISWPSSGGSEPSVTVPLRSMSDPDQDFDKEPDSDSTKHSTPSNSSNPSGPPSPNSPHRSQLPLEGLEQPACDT
T6 sequence (Q6DT37 whole entry): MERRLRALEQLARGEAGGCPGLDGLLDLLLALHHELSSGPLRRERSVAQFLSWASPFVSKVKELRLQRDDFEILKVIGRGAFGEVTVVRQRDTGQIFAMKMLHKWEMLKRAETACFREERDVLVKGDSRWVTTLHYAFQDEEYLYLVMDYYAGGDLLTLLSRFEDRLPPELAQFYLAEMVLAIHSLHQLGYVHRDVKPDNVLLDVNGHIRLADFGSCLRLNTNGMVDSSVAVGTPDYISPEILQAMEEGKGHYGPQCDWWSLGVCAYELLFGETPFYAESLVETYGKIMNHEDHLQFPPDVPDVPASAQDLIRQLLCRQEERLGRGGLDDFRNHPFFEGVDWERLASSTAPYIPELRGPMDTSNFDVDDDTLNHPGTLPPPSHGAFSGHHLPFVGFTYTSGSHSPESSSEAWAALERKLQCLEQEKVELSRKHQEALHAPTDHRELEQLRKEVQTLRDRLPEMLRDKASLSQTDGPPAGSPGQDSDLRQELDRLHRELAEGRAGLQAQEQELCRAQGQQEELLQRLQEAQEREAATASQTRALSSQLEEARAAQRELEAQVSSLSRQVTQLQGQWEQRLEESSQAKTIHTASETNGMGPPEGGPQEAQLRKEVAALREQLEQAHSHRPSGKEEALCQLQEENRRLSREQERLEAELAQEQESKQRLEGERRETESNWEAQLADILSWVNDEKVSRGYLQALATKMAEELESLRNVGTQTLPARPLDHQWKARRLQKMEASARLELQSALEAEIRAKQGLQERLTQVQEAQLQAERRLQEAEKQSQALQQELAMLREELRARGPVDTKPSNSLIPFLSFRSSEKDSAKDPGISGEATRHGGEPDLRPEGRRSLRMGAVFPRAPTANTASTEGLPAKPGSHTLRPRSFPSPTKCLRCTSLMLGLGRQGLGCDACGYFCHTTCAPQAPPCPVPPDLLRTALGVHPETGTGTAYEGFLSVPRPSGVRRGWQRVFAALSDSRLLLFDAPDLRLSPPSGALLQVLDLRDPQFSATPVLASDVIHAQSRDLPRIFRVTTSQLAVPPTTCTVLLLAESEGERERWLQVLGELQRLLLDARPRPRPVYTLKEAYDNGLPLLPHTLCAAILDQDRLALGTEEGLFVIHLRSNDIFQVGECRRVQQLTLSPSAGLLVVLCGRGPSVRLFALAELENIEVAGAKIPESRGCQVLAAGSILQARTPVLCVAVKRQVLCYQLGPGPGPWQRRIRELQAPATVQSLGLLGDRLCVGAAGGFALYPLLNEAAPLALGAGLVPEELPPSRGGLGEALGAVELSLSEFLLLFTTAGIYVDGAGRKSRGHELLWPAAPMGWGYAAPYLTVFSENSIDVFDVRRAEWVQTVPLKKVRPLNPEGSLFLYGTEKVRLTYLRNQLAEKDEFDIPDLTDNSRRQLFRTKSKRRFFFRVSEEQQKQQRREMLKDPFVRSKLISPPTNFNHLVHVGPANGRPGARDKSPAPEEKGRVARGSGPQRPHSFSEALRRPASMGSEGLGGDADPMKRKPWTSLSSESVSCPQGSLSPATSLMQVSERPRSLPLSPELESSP
T3 sequence (P07948 63-512 T319F limits assumed): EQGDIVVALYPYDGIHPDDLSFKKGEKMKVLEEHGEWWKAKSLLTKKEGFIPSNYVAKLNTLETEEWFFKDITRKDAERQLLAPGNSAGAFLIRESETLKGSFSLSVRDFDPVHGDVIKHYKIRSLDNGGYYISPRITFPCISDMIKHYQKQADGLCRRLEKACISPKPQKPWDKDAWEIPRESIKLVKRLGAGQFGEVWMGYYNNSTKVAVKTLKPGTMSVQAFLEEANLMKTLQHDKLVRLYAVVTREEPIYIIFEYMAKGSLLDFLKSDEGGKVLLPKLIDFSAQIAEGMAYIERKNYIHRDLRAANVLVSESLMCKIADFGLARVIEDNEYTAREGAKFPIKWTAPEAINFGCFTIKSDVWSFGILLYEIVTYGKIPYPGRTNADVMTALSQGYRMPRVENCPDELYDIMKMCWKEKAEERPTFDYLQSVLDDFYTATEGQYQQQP

## CN1CCN(C2CCC(n3cc(-c4ccc(Oc5ccccc5)cc4)c4c(N)ncnc43)CC2)CC1 (stereo not drawn) [A-419259]
LCK
  % Control: 2.3%
Fgr T338M; Fgr gatekeeper methionine substitution, vs wild-type
  resistance to A-419259: 2.5 fold
Fgr T338M; read-out: A-419259 IC50, Fig 5B, Fgr T338M, ATP at Km, mean ± SE, three independent determinations
  IC50: 160.6 ± 1.1 nM
[1]
  resistance to the inhibitor in cells: about 3 fold
[2]
  IC50: 129 nM
[3]; Fig 9A, 72 hours, read-out: IC50 (growth arrest)
  IC50: 176 nM
[3]; S9 Fig, N676S control, 48 h, read-out: IC50 (cell viability)
  IC50: 89.1 nM
[4]
  IC50: 15.4 nM
[5]
  IC50: > 100 nM
[6]; Fgr T338L as printed
  resistance to the inhibitor in cells: about 3 fold
[6]; Fig 6B, TF-1/FLT3-ITD + Fgr-T338L, 72 hours
  IC50: > 1000 nM
[7]
  IC50: 173 nM
TF-1/Flt3-ITD cells; Fig 3, Flt3-ITD: WT, SFK: none, read-out: IC50, nM (growth inhibition)
  IC50: 18.2 nM
TF-1/Flt3-ITD cells; Fig 9A, control TF-1/Flt3-ITD cells, read-out: IC50 (growth arrest)
  IC50: 26 nM
[8]
  IC50: 22.6 nM
Lyn T338F
  IC50: 242 ± 1.2 nM
LYN
  % Control: 1.7%
468 kinases
  kinase interactions: 19
MRCKB
  % Control: 100%
DMPK2
  % Control: 36%
PRKCH
  % Control: 87%
[9]; [15]
  IC50: 410 ± 136 nM
[9]; [16]
  IC50: 597 ± 76.3 nM
[10]; [15]
  IC50: 193 ± 51.4 nM
[10]; [16]
  IC50: 326 ± 38.4 nM
[11]; [15]
  IC50: 213 ± 73.7 nM
[11]; [16]
  IC50: 178 ± 46.1 nM
[12]; [15]
  IC50: 125 ± 7.3 nM
[12]; [16]
  IC50: 91.6 ± 15.6 nM
[13]; [15]
  IC50: 187 ± 20.8 nM
[13]; [16]
  IC50: 283 ± 84.2 nM
[14]; [15]
  IC50: 473 ± 53.9 nM
[14]; [16]
  IC50: 436 ± 107 nM

— article PMC6886798, “Expression of myeloid Src-family kinases is associated with poor prognosis in AML and influences Flt3-ITD kinase inhibitor acquired resistance” (PLoS ONE, 2019)
